Experimental data reported in patent US8501245B2, “Selectively inhibiting estrogen production and providing estrogenic effects in the human body” (Morinda, Inc., priority 2000, dated 2013).
“And” between values parts separate entries of the source, which are not always exact repeats. Equal values may be shown once.

Test system: ICR derived female immature mice
Test: Protocol # 531000 Estrogenic Agonism in Mice (uterine wet weight)
Type: in vivo
Conditions: 0.03 mg/kg PO; for % Increase in uterine wet weight: compared with historical vehicle control (16.5 mg)
Protocol: Tahitian Noni® Puree Juice Concentrate (TNPJC) dry form was evaluated for possible estrogenic agonism is ICT derived immature female mice at a maximum tolerated dose of 4000 mg/kg administered orally once daily for 3 consecutive days. The dry form of TNPJC resulted from using a Rotor Vap with pressure and low temperature.
Test substance TNCONC was evaluated for possible Estrogenic Agonism in ICR derived female immature mice at a maximum tolerated dose of 4000 mg/kg administered orally once daily for 3 consecutive days.
1. Test Substances and Dosing Pattern—TNCONC, provided by Morinda, Inc., was dissolved in 2% Tween 80/0.9% NaCl. For testing, a maximum tolerated dose of 4000 mg/kg was administered […] daily for 3 consecutive days, and a dosing volume of 10 ml/kg was used.
2. Animals—Female ICR mice provided by MDS Pharma Services—Taiwan Ltd. were used. Space allocation for 5 animals was 29×18×13 cm. Animals were housed in APEC^R cages and maintained in a controlled temperature (22° C.-24° C.) and humidity (60%-80%) environment with 12 hours light dark cycles for at least one week in MDS Pharma Services—Taiwan Laboratory prior to use. Free access to standard lab chow for rats (Lab Diet, Rodent Diet, PMI Nutrition International, USA) and tap water was granted. All aspects of this work including housing, experimentation and disposal of animals were performed in general accordance with the International Guiding Principles for Biomedical Research Involving Animals (CIOMS Publication No. ISBN 92 90360194, 1985),
Test substance was administered at a maximum tolerated dose of 4000 mg/kg IP for three consecutive days to a group of 5 ICR derived immature female mice weighing 13±1 g. The animals were sacrificed 24 hours after the final dose and wet weight of the uterus of each animal was measured. A 50 percent or more (≧50%) increase in uterine wet weight relative to control group of animals indicates possible estrogen agonist activity.
A vehicle or test substance was administered IP for three consecutive days to female immature mice weighing 13±1 g. The animals were sacrificed 24 hours after the final dose and wet weight of the uterus of each animal was determined. A 50 percent or more (≧50%) increase in uterine wet weight relative to the vehicle treated group of animals, shown in parenthesis, indicates possible estrogen agonist activity.

Compound: C[C@]12CC[C@@H]3c4ccc(OC(=O)c5ccccc5)cc4CC[C@H]3[C@@H]1CC[C@@H]2O [β-Estradiol 3-Benzoate]
- Weight of Uterus, Average: 30.2 mg
- % Increase in uterine wet weight: (83) %
- % Increase in uterine wet weight (listed as Estradiol 3-Bensoate): dramatic increase
- % Increase in uterine wet weight (listed as β-Estadiol 3-Benzoate): 83%
- Weight of Uterus, Individual (single animals N 1-5): 28.7 mg and 20.7 mg and 31.3 mg and 35.6 mg and 34.9 mg
